Key:
[1] = system: EA reactive antibody (IgG) in infectious mononucleosis (IM) sera; assay: ELISA, EA peptides with EBV infectious mononucleosis sera; assay type: binding, human; conditions: for ELISA result, peptides with and without extensions: EA positive EBV IM acute serum; for O.D.: 420 nm
Description: ELISA. The ELISA for measuring specific antibodies to p17, p50 or to the synthetic peptides was performed as previously described in detail (Luka et al., J. Immunol. Methods, 67:145-156, 1984). Aliquots of different antigen concentrations were diluted in 0.5M Na2CO3 buffer, pH 9.5, added to wells in polystyrene microtiter plates (Linbro) and the plates incubated overnight at 4° C. Following this incubation period, the plates were washed 5× with Tris-HCl, pH 7.4, containing 0.05% Tween 20, 50 mM NaCl and 100 mg per liter albumin (Sigma) and dried for 20 minutes at room temperature. The plates were screened with different anti-EA-R or EA-D antibody positive human sera and the monoclonal antibody to p17 or p50 to identify the optimal concentration of antigen to be used in the serological studies. Alkaline-phosphatase-labelled goat anti-human IgG (Sigma) or goat anti-mouse IgG (Sigma) was used as the indicator system.
For the testing of human sera for antibodies to native p17, p50 or to the synthetic peptides, sera were diluted 1:10 in ELISA buffer, added in 0.1 ml volumes to wells coated with optimal concentrations of antigen and the plates were incubated for 60 minutes at room temperature. After 4 washes with ELISA buffer, 100 μl of alkaline phosphatase-labelled goat anti-human IgG in ELISA buffer were added to each well and the plates were incubated at room temperature for 1 hour. Following four more washes in buffer, the enzyme reaction was performed by dissolving 1 mg per ml of Sigma alkaline phosphatase substrate in 1M diethanolamine buffer, pH 10.4, containing 1 mM MgCl2 and 0.1 mM ZnCl2, and 100 μl of the mixture was then added to each well. The reaction was allowed to proceed for 30 minutes at 37° C. and then the plates were screened directly with a microplate reader, TITERTEK MULTISKAN MC (Flow), at 420 nm. Readings above 0.1 which was 2× the background noted with antibody-negative sera were considered positive reactions.
When the entire 50.10 peptide was tested with 1M sera, 24/32 or 75% of the sera contained EA-D reactive antibody (IgG) (Table 4).
Serological reactivity of EA peptides p17.1 and p50.1 which contained additional amino acids on their amino and carboxy termini was tested on EBV IM acute sera which was EA positive. The ELISA results shown in Table 5 indicate that the additional amino acids improved reactivity for both EA peptides.
Immunofluorescence assays (IFA) were performed as described by Henle, et al. (Int. J. Cancer, 8:272-282, 1971). Western blot analysis was done by methods commonly used in the art (See for example, Coligan, et al., Current Protocols in Immunology, Wiley Interscience, 1991, Unit 12). Samples of EBV-infected cell lysates (P3HR-1) were tested with human whole antiserum from positive humans (Pearson, et al., Virology, 160:151-161, 1987). A comparison was made between EA serology by IFA, using the EA-D 50.1 peptide antisera, and ELISA serology using 50.1 peptide (see Example 2).

[2] = system: antibodies to peptides 50.10 (EA-D) and 17.1 (EA-R) in sequential sera; assay: IgG ELISA on sequential sera of a patient with acute infectious mononucleosis; assay type: binding, human; conditions: sera at 1.20 dilution, (+) >0.25
From the text: The early antigen D-R transition was followed in a patient during a course of acute infectious mononucleosis. Antibodies to peptides 50.10 (EA-D) and 17.1 (EA-R) were detected by ELISAs on specimens collected over a six month duration. […] Therefore, the peptides of the invention are useful for monitoring the course of EBV-associated disease in a patient.

[3] = 32 IM sera, values >0.5 positive (O.D. 420 nm)

ETFTETWNRFITHTE [p17.1, synthetic peptide from 17 Kd early antigen (EA-R) region of EBV]
% Positive [1, 3]: 38%
IM sera positive / tested [1, 3]: 12/32
ELISA result, peptides with and without extensions ([1]; sample no. 2241): 0.282
ELISA result, peptides with and without extensions ([1]; sample no. 12498): 0.637
ELISA result, peptides with and without extensions ([1]; sample no. 12836): 0.692
SCORE ([1]; IM serum sample no. 2241): − (Values >0.5 were considered positive (O.D. readings at 420 nm).)
SCORE ([1]; IM serum sample no. 11984): + (Values >0.5 were considered positive (O.D. readings at 420 nm).)
O.D. ([1]; IM serum sample no. 11984): 0.542
SCORE ([1]; IM serum sample no. 12005): + (Values >0.5 were considered positive (O.D. readings at 420 nm).)
O.D. ([1]; IM serum sample no. 12005): 0.981
SCORE ([1]; IM serum sample no. 12288): + (Values >0.5 were considered positive (O.D. readings at 420 nm).)
O.D. ([1]; IM serum sample no. 12288): 0.700
SCORE ([1]; IM serum sample no. 12407): + (Values >0.5 were considered positive (O.D. readings at 420 nm).)
O.D. ([1]; IM serum sample no. 12407): 0.787
SCORE ([1]; IM serum sample no. 12409): + (Values >0.5 were considered positive (O.D. readings at 420 nm).)
O.D. ([1]; IM serum sample no. 12409): 0.592
SCORE ([1]; IM serum sample no. 12418): − (Values >0.5 were considered positive (O.D. readings at 420 nm).)
O.D. ([1]; IM serum sample no. 12418): 0.463
SCORE ([1]; IM serum sample no. 12498): + (Values >0.5 were considered positive (O.D. readings at 420 nm).)
SCORE ([1]; IM serum sample no. 12502): + (Values >0.5 were considered positive (O.D. readings at 420 nm).)
O.D. ([1]; IM serum sample no. 12502): 0.924
SCORE ([1]; IM serum sample no. 12587): + (Values >0.5 were considered positive (O.D. readings at 420 nm).)
O.D. ([1]; IM serum sample no. 12587): 0.571
SCORE ([1]; IM serum sample no. 12600): − (Values >0.5 were considered positive (O.D. readings at 420 nm).)
SCORE ([1]; IM serum sample no. 12611): − (Values >0.5 were considered positive (O.D. readings at 420 nm).)
O.D. ([1]; IM serum sample no. 12611): 0.259
SCORE ([1]; IM serum sample no. 12801): + (Values >0.5 were considered positive (O.D. readings at 420 nm).)
O.D. ([1]; IM serum sample no. 12801): 0.601
SCORE ([1]; IM serum sample no. 12828): − (Values >0.5 were considered positive (O.D. readings at 420 nm).)
O.D. ([1]; IM serum sample no. 12828): 0.375
SCORE ([1]; IM serum sample no. 12829): − (Values >0.5 were considered positive (O.D. readings at 420 nm).)
O.D. ([1]; IM serum sample no. 12829): 0.257
SCORE ([1]; IM serum sample no. 12836): + (Values >0.5 were considered positive (O.D. readings at 420 nm).)
SCORE ([1]; IM serum sample no. 12837): + (Values >0.5 were considered positive (O.D. readings at 420 nm).)
O.D. ([1]; IM serum sample no. 12837): 0.523
SCORE ([1]; IM serum sample no. 12840): − (Values >0.5 were considered positive (O.D. readings at 420 nm).)
O.D. ([1]; IM serum sample no. 12840): 0.488
SCORE ([1]; IM serum sample no. 12888): − (Values >0.5 were considered positive (O.D. readings at 420 nm).)
O.D. ([1]; IM serum sample no. 12888): 0.423
SCORE ([1]; IM serum sample no. 12889): + (Values >0.5 were considered positive (O.D. readings at 420 nm).)
O.D. ([1]; IM serum sample no. 12889): 0.574
SCORE ([1]; IM serum sample no. 12892): − (Values >0.5 were considered positive (O.D. readings at 420 nm).)
O.D. ([1]; IM serum sample no. 12892): 0.430
SCORE ([1]; IM serum sample no. 12893): + (Values >0.5 were considered positive (O.D. readings at 420 nm).)
O.D. ([1]; IM serum sample no. 12893): 0.592
SCORE ([1]; IM serum sample no. 12899): + (Values >0.5 were considered positive (O.D. readings at 420 nm).)
O.D. ([1]; IM serum sample no. 12899): 0.825
SCORE ([1]; IM serum sample no. 12900): − (Values >0.5 were considered positive (O.D. readings at 420 nm).)
O.D. ([1]; IM serum sample no. 12900): 0.264
SCORE ([1]; IM serum sample no. 13075): − (Values >0.5 were considered positive (O.D. readings at 420 nm).)
O.D. ([1]; IM serum sample no. 13075): 0.154
SCORE ([1]; IM serum sample no. 13419): + (Values >0.5 were considered positive (O.D. readings at 420 nm).)
O.D. ([1]; IM serum sample no. 13419): 0.655
SCORE ([1]; IM serum sample no. 13637): + (Values >0.5 were considered positive (O.D. readings at 420 nm).)
O.D. ([1]; IM serum sample no. 13637): 0.719
SCORE ([1]; IM serum sample no. 13769): + (Values >0.5 were considered positive (O.D. readings at 420 nm).)
O.D. ([1]; IM serum sample no. 13769): 0.757
SCORE ([1]; IM serum sample no. 13929): − (Values >0.5 were considered positive (O.D. readings at 420 nm).)
O.D. ([1]; IM serum sample no. 13929): 0.332
SCORE ([1]; IM serum sample no. 14043): − (Values >0.5 were considered positive (O.D. readings at 420 nm).)
O.D. ([1]; IM serum sample no. 14043): 0.095
SCORE ([1]; IM serum sample no. 14128): − (Values >0.5 were considered positive (O.D. readings at 420 nm).)
O.D. ([1]; IM serum sample no. 14128): 0.434
SCORE ([1]; IM serum sample no. 14131): − (Values >0.5 were considered positive (O.D. readings at 420 nm).)
O.D. ([1]; IM serum sample no. 14131): 0.182
IgG ELISA O.D. reading ([2]; serum no. 9817, May 26, 1988): 0.158
IgG ELISA O.D. reading ([2]; serum no. 9820, May 31, 1988): 0.106
IgG ELISA O.D. reading ([2]; serum no. 9829, Jun. 07, 1988): 0.135
IgG ELISA O.D. reading ([2]; serum no. 9941, Jun. 20, 1988): 0.169
IgG ELISA O.D. reading ([2]; serum no. 9983, Jun. 27, 1988): 0.645
IgG ELISA O.D. reading ([2]; serum no. 10064, Jul. 18, 1988): 0.842
IgG ELISA O.D. reading ([2]; serum no. 10237, Aug. 29, 1988): 0.260
IgG ELISA O.D. reading ([2]; serum no. 10271, Sep. 20, 1988): 0.231
IgG ELISA O.D. reading ([2]; serum no. 10488, Oct. 21, 1988): 0.217
IgG ELISA O.D. reading ([2]; serum no. 10546, Nov. 15, 1988): 0.193

From US7988972B2, “Immunoreactive peptides from Epstein-Barr virus” (Ortho-Clinical Diagnostics, Inc., priority 1993, dated 2011)
